Where a name gives a salt, the structure may show the parent alone.
Key:
rat mAChR M4 = biological target: T1, rat mAChR M4 (Rattus norvegicus, UniProt P08485); test: mAChR M4 cell-based functional assay (calcium flux), rat M4; set-up: Emax: dose or concentration left out as unconfirmed; conditions: for EC50: read-out: Rat M4 EC50, CHO-K1 rM4-Gqi5 cells, calcium flux, increase in EC20 acetylcholine response
T1 sequence (P08485 1-478): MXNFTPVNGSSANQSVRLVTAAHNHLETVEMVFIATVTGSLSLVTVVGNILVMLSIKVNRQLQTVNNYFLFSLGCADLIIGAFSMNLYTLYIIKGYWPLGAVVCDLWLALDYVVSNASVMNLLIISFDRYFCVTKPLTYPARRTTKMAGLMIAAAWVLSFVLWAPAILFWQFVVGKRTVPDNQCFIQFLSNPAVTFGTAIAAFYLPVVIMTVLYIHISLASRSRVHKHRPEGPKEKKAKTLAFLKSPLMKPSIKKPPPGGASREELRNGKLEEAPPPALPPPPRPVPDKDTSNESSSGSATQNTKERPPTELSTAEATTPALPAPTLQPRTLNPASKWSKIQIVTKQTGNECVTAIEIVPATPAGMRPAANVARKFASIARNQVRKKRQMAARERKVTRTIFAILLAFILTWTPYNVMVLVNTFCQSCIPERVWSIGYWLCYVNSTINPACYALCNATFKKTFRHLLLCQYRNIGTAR

human mAChR M4 = biological target: T2, human mAChR M4 (Homo sapiens, UniProt P08173); test: mAChR M4 cell-based functional assay (calcium flux), human M4; conditions: for Emax: % ACh maximum at 30 μM; for EC50: calcium flux
T2 sequence (P08173 1-479): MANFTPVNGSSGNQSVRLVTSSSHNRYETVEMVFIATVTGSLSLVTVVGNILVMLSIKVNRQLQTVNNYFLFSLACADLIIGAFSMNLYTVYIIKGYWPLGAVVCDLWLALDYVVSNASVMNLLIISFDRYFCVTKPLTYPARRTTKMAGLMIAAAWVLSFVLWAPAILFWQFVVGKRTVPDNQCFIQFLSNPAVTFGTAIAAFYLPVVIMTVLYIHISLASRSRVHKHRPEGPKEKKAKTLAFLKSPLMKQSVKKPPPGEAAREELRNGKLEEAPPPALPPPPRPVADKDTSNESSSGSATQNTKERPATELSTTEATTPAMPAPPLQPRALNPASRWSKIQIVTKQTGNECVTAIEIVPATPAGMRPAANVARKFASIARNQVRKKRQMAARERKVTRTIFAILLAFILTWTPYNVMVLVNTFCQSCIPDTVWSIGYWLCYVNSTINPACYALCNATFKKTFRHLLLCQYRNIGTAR

[1] = Human M4 EC50, CHO-K1 hM4-Gqi5 cells, increase in EC20 acetylcholine response
[2] = Human M4 EC50 (nM), Table 10, PAM activity with EC20 acetylcholine
[3] = Human M4 EC50 (nM), Table 11, PAM activity with EC20 acetylcholine

With `Cc1nnc2sc3c(NC4CN(c5ncc(C(F)(F)F)cn5)C4)ncnc3c2c1C` [Compound 7, 3,4-dimethyl-N-(1-(5-(trifluoromethyl)pyrimidin-2-yl)azetidin-3-yl)pyrimido[4′,5′:4,5] thieno[2,3-c]pyridazin-8-amine] the Emax (rat mAChR M4) was 86%, the EC50 (rat mAChR M4) was 30 nM and the Emax (human mAChR M4; Human M4) was 74%. The EC50 (human mAChR M4; [1]) was 251 nM.

`Cc1nnc2sc3c(N4CCN(C5CC5)CC4)ncnc3c2c1C` [Compound 8, 8-(4-cyclopropylpiperazin-1-yl)-3,4-dimethylpyrimido [4′,5′:4,5]thieno[2,3-c] pyridazine] gave an Emax (rat mAChR M4) of 42%, an EC50 (rat mAChR M4) of 700 nM and an Emax (human mAChR M4; Human M4) of 30%. It also gave an EC50 (human mAChR M4; [1]) of 616 nM.

`Cc1nnc2sc3c(N4CC(c5ccncc5)C4)ncnc3c2c1C` [Compound 24, 3,4-dimethyl-8-(3-(pyridin-4-yl)azetidin-1-yl)pyrimido[4′,5′:4,5] thieno[2,3-c]pyridazine] showed an Emax (rat mAChR M4) of 40%, an EC50 (rat mAChR M4) of 185 nM and an Emax (human mAChR M4; Human M4) of 62%.

`Cc1nnc2sc3c(N(C)C)ncnc3c2c1C` [Compound 1, N,N,3,4-tetramethylpyrimido[4′,5′:4,5]thieno[2,3-c]pyridazin-8-amine] gave an Emax (rat mAChR M4) of 79%, an EC50 (rat mAChR M4) of 724 nM and an Emax (human mAChR M4; Human M4) of 62%. The EC50 (human mAChR M4; [1]) was 638 nM.

Work on `Cc1nnc2sc3c(N4CCC(N(C)C)C4)ncnc3c2c1C` (centres unmarked) [Compound 11, 1-(3,4-dimethylpyrimido [4′,5′:4,5]thieno[2,3-c]pyridazin-8-yl)-N,N-dimethylpyrrolidin-3-amine] yielded an Emax (rat mAChR M4) of 55%, an EC50 (rat mAChR M4) of 326 nM and an Emax (human mAChR M4; Human M4) of 40%. The EC50 (human mAChR M4; [1]) was 257 nM.

`Cc1nnc2sc3c(N4CCC4)ncnc3c2c1C` [Compound 9, 8-(azetidin-1-yl)-3,4-dimethylpyrimido [4′,5′:4,5]thieno[2,3-c] pyridazine] showed an Emax (rat mAChR M4) of 75%, an Emax (human mAChR M4; Human M4) of 68% and an EC50 (human mAChR M4; [1]) of 351 nM.

`Cc1nnc2sc3c(N4CCCCC4)ncnc3c2c1C` [Compound 4, 3,4-dimethyl-8-(piperidin-1-yl)pyrimido[4′,5′:4,5]thieno [2,3-c]pyridazine] gave an Emax (rat mAChR M4) of 58%, an EC50 (rat mAChR M4) of 215 nM and an Emax (human mAChR M4; Human M4) of 44%. It also gave an EC50 (human mAChR M4; [1]) of 120 nM.

`COCCN(C)c1ncnc2c1sc1nnc(C)c(C)c12` [Compound 12, N-(2-methoxyethyl)-N,3,4-trimethylpyrimido [4′,5′:4,5]thieno[2,3-c] pyridazin-8-amine] showed an Emax (rat mAChR M4) of 57%, an EC50 (rat mAChR M4) of 927 nM and an Emax (human mAChR M4; Human M4) of 40%. For the same compound, the EC50 (human mAChR M4; [1]) was 846 nM.

`Cc1nnc2sc3c(NC4CCOCC4)ncnc3c2c1C` [Compound 3, 3,4-dimethyl-N-(tetrahydro-2H-pyran-4-yl) pyrimido[4′,5′:4,5] thieno[2,3-c]pyridazin-8-amine] gave an Emax (rat mAChR M4) of 60%, an EC50 (rat mAChR M4) of 521 nM and an Emax (human mAChR M4; Human M4) of 45%. For the same compound, the EC50 (human mAChR M4; [1]) was 446 nM.

Work on `Cc1nnc2sc3c(N4CCCC4)ncnc3c2c1C` [Compound 6, 3,4-dimethyl-8-(pyrrolidin-1-yl)pyrimido[4′,5′:4,5]thieno [2,3-c]pyridazine] yielded an Emax (rat mAChR M4) of 82% and an Emax (human mAChR M4; Human M4) of 68%.

With `Cc1nnc2sc3c(N4CC5CC5C4)ncnc3c2c1C` (centres unmarked) [Compound 10, 8-(3-azabicyclo[3.1.0]hexan-3-yl)-3,4-dimethylpyrimido [4′,5′:4,5]thieno[2,3-c] pyridazine] the Emax (rat mAChR M4) was 86%, the EC50 (rat mAChR M4) was 36 nM and the Emax (human mAChR M4; Human M4) was 81%. For the same compound, the EC50 (human mAChR M4; [1]) was 21 nM.

Work on `COc1c(F)cc(CNc2ncnc3c2oc2nnc(C)c(C)c23)cc1F` [Compound 311, N-[(3,5-difluoro-4-methoxy-phenyl)methyl]-3,4-dimethyl-pyrimido[4′,5′:4,5] furo[2,3-c]pyridazin-8-amine] yielded an EC50 (human mAChR M4; [2]) of 378 nM and an Emax (human mAChR M4; Table 10) of 51%.

Compound `Cc1nnc2sc3c(NC4CNC4)ncnc3c2c1C` [Compound 88, N-(azetidin-3-yl)-3,4-dimethyl-pyrimido [4′,5′:4,5]thieno[2,3-c] pyridazin-8-amine dihydrochloride] has an EC50 (human mAChR M4; [2]) of 1190 nM and an Emax (human mAChR M4; Table 10) of 73.7%.

`Cc1nnc2sc3c(NCc4ccc(C(F)(F)F)nc4)ncnc3c2c1C` [Compound 146, 3,4-dimethyl-N-[[6-(trifluoromethyl)-3-pyridyl]methyl]pyrimido [4′,5′:4,5]thieno[2,3-c] pyridazin-8-amine hydrochloride] showed an EC50 (human mAChR M4; [2]) of 828 nM and an Emax (human mAChR M4; Table 10) of 97.7%.

`Cc1nc2sc3c(N4CC5(COC5)C4)ncnc3c2c(C)c1Cl` [Compound 260, 6-(8-chloro-7,9-dimethyl-pyrido [3′,2′:4,5]thieno[3,2-d]pyrimidin-4-yl)-2-oxa-6-azaspiro[3.3]heptane hydrochloride] gave an Emax (human mAChR M4; Table 10) of 70.9%.

For `Cc1nnc2sc3c(NC4CCN(c5ccccc5)C4)ncnc3c2c1C` (centres unmarked) [Compound 23, 3,4-dimethyl-N-(1-phenylpyrrolidin-3-yl) pyrimido[4′,5′:4,5]thieno [2,3-c]pyridazin-8-amine], the Emax (human mAChR M4; Human M4) was 27% and the EC50 (human mAChR M4; [1]) was at least 10000 nM.

For `COc1ccc(C2CC2Nc2ncnc3c2sc2nnc(C)c(C)c23)cc1` (centres unmarked) [Compound 26, N-(2-(4-methoxyphenyl)cyclopropyl)-3,4-dimethylpyrimido [4′,5′:4,5]thieno[2,3-c] pyridazin-8-amine], the Emax (human mAChR M4; Human M4) was 44% and the EC50 (human mAChR M4; [1]) was at least 10000 nM.

`COc1nnc2sc3c(NCc4ccc(C(C)(C)O)cc4)ncnc3c2c1C` [Compound 280, 2-[4-[[(3-methoxy-4-methyl-pyrimido [4′,5′:4,5]thieno[2,3-c]pyridazin-8-yl)amino]methyl]phenyl]propan-2-ol] gave an Emax (human mAChR M4; Table 10) of 86.7%.

`Cc1nnc2sc3c(NCc4ccc(C(=O)NC5CC5(C)C)c(Cl)c4)ncnc3c2c1C` (centres unmarked) [Compound 319, 2-chloro-N-(2,2-dimethylcyclopropyl)-4-[[(3,4-dimethylpyrimido [4′,5′:4,5]thieno[2,3-c]pyridazin-8-yl)amino]methyl]benzamide] was tested, and the EC50 (human mAChR M4; [3]) was 544 nM and the Emax (human mAChR M4; Table 11) was 75.6%.

In the case of `Cc1nnc2sc3c(NCc4ccc(C(C)(C)O)cc4Cl)ncnc3c2c1C` [Compound 189, 2-[3-chloro-4-[[(3,4-dimethylpyrimido [4′,5′:4,5]thieno[2,3-c]pyridazin-8-yl)amino]methyl]phenyl]propan-2-ol], the EC50 (human mAChR M4; [2]) is reported as 831 nM and the Emax (human mAChR M4; Table 10) is reported as 94.3%.

In the case of `Cc1nc2sc3c(NC4CN(c5ncc(F)cn5)C4)ncnc3c2c(C)c1Cl` [Compound 263, 8-chloro-N-[1-(5-fluoropyrimidin-2-yl)azetidin-3-yl]-7,9-dimethyl-pyrido[3′,2′:4,5] thieno[3,2-d]pyrimidin-4-amine hydrochloride], the EC50 (human mAChR M4; [2]) is reported as 9520 nM and the Emax (human mAChR M4; Table 10) is reported as 72.6%.

In the case of `Cc1cnn(C)c1-c1ccc(CNc2ncnc3c2sc2nnc(C)c(C)c23)cc1` [Compound 342, N-[[4-(2,4-dimethylpyrazol-3-yl)phenyl]methyl]-3,4-dimethyl-pyrimido[4′,5′:4,5] thieno[2,3-c]pyridazin-8-amine], the EC50 (human mAChR M4; [3]) is reported as 1100 nM and the Emax (human mAChR M4; Table 11) is reported as 81.5%.

In the case of `Cc1c(Cl)cnc2sc3c(N4CCC(F)C4)ncnc3c12` (centres unmarked) [Compound 220, 8-chloro-4-(3-fluoropyrrolidin-1-yl)-9-methyl-pyrido [3′,2′:4,5]thieno[3,2-d] pyrimidine], the EC50 (human mAChR M4; [2]) is reported as 885 nM and the Emax (human mAChR M4; Table 10) is reported as 63.8%.

`Cc1nc2sc3c(N4CC(c5ccncc5)C4)ncnc3c2c(C)c1Cl` [Compound 262, 8-chloro-7,9-dimethyl-4-[3-(4-pyridyl)azetidin-1-yl]pyrido[3′,2′:4,5] thieno[3,2-d]pyrimidine dihydrochloride] was tested, and the EC50 (human mAChR M4; [2]) was 1520 nM and the Emax (human mAChR M4; Table 10) was 83.8%.

With `Cc1nnc2sc3c(NC4CN(c5cc(Cl)ncc5Cl)C4)ncnc3c2c1C` [Compound 85, N-[1-(2,5-dichloro-4-pyridyl)azetidin-3-yl]-3,4-dimethyl-pyrimido [4′,5′:4,5]thieno[2,3-c] pyridazin-8-amine] the Emax (human mAChR M4; Table 10) was 74.3%.
